Measurements reported in publication PMC3743547 (Biochemistry, 2013).

Legend:
MppR [1] = target: T1, MppR (Streptomyces hygroscopicus, UniProt Q643B8); test: steady-state kinetics of aldol condensation; format: biochemical; conditions: co-substrate pyruvate; no saturation below the solubility limit
MppR [2] = target: T1, MppR; test: X-ray crystal structure, […] Å; format: binding; conditions: covalent; Schiff base with Lys156; 30 mM sodium pyruvate, 24 h soak

| Km (MppR [1]) | SMILES | X-ray crystal structure, 1.72 Å (crystal soak) (MppR [2]) |
| --- | --- | --- |
| > 50 mM | O=Cc1c[nH]cn1 [compound 6, 4-imidazolecarboxaldehyde] | – |
| – | CC(=O)C(=O)O [pyruvate] | resulting structure showed pyruvate covalently bound to Lys156 as the Schiff base |
